Key:
[1] = target: human μ opioid receptor (Homo sapiens, UniProt P35372); experiment: Opioid receptor binding, [3H]DAMGO displacement, CHO cell membranes; settings: 1.3 nM [3H]DAMGO, 120 min 25 °C
[2] = test system: cocaine-induced convulsions in Swiss Webster mice; experiment: Cocaine-induced convulsions; format: in vivo; settings: 30 mg/kg ip (highest dose tested), 15 min before cocaine 70 mg/kg ip, p < 0.05 Fisher's exact test
[3] = test system: behavioral and neurotoxic effects of cocaine in mice; settings: cited from earlier work
[4] = test system: mice; settings: ref unpublished finding, R.R. Matsumoto, Morgantown, WV; cited from earlier work

Chain of human μ opioid receptor (P35372 whole entry): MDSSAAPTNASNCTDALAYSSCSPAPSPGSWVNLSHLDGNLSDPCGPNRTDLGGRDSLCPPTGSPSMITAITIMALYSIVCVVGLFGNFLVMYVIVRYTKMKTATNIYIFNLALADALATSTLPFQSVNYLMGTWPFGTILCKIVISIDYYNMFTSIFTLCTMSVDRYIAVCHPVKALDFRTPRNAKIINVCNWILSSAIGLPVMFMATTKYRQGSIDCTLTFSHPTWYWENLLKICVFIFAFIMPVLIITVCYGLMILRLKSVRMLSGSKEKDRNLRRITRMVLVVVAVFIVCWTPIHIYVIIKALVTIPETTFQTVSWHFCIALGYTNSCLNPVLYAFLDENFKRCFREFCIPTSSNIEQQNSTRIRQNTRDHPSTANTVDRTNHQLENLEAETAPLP

Structure (SMILES) | Opioid binding Ki ± SEM, μ [1] | Attenuation of cocaine-induced convulsions [2] | Effect on behavioral and neurotoxic effects of cocaine [3] | Therapeutic window / deaths at supratherapeutic doses [4]
CN(CCc1ccccc1)[C@H]1CCCC[C@@H]1O (relative stereo) [Compound 6, trans-2-(Methyl(phenethyl)amino)cyclohexanol] | no affinity | significant attenuation of cocaine-induced convulsions |  | 
c1ccc(CCN2CCCCC2)cc1 [AC927, N-phenethylpiperidine] |  |  | attenuated the behavioral and neurotoxic effects of cocaine in mice | relatively narrow therapeutic window, which can result in deaths in mice at supratherapeutic doses

— paper PMC8463110 (Bioorganic & medicinal chemistry, 2013)
